The values below come from patent US10626112B2, “Heterocyclic sulfonamide derivative and medicine comprising same” (EA PHARMA CO., LTD., priority 2014, dated 2020).

The target of the experiment is human TRPA1 (Homo sapiens (Human), UniProt O75762). The experiment in a line: Measurement of TRPA1 antagonist activity (1): intracellular calcium increase. It counts as cell-based. Conditions: 293T cells transfected with human TRPA1 expression plasmid; allylisothiocyanate 20 μM stimulation; intracellular calcium fluorescence; read-out: hTRPA1 IC50. The source says:
Measurement of TRPA1 Antagonist Activity (1)
Human TRPA1 Expression Plasmid
As cDNA encoding human TRPA1 (GenBank accession No. […]), a commercially available product was purchased (manufactured by Kazusa DNA Research Institute, clone No.: pFN21AB7348, item No.: FHC07217). Using this as a template, full-length human TRPA1 gene was amplified using the primer sequences shown below, by reaction using DNA polymerase (manufactured by Stratagene, trade name: PfuUltra High-Fidelity DNA Polymerase).
A recognition site (underlined) of restriction enzyme HindIII was added to the 5′ side, and XbaI site (underlined) was added to the 3′ side, and GTT of the template sequence was changed to termination codon TAG (bold). The obtained double stranded DNA was enzyme-digested with HindIII and XbaI, and introduced into the multicloning site of expression plasmid pcDNA3.1/zeo(+) (manufactured by Invitrogen) to construct a human TRPA1 expression plasmid.
Human embryonic kidney-derived 293T cells were cultured in Dulbecco's Modified Eagle Medium containing 10% fetal bovine serum, 10 unit penicillin, and 10 μg streptomycin, plated on a petri dish having a diameter of 10 cm at 3×10^6 cells, and cultured for 24 hr in a CO2 incubator. A reduced serum medium (manufactured by Invitrogen, trade name: OPTI-MEM, 600 μL), a gene transfer reagent (manufactured by Mirus Bio, trade name: Mirus TransIT-293, 18 μL), and human TRPA1 expression plasmid (6 μg) were mixed, the total amount of the mixture was added to the cells on the petri dish to allow for gene transfer. The cells were recovered about for 8 hr later, plated on a poly-D-lysine coated 384 well black/clear bottom plate at 12,000 cells/well, and cultured overnight.
Measurement of Intracellular Calcium Increase
The 384 well plate was recovered, and the medium was removed. A calcium-bonded fluorescent indicator (manufactured by Molecular Device, trade name: Calcium4 Assay Kit, 38 μL) dissolved in assay buffer (1×HBSS, 20 mM HEPES, pH 7.2) was added, and the cells were stained in a CO2 incubator for 1 hr. The cells were taken out at room temperature, stood for not less than 15 min, a test substance (10 μL) was added by a platereader FDSS7000 (Hamamatsu Photonics K.K.) equipped with a 384ch dispenser. After 10 min, allylisothiocyanate (12 μL) was further added at a final concentration of 20 μM, and changes in the relative fluorescence intensity after addition of allylisothiocyanate were measured for 5 min.
Test Substance Preparation
The test substance was dissolved in dimethyl sulfoxide and serially diluted with an assay buffer containing 0.1% bovine serum albumin (1×HBSS, 20 mM HEPES, pH 7.2) to a 4.8-fold concentration of the evaluation concentration. Allylisothiocyanate, which is a known TRPA1 activator, was dissolved in dimethyl sulfoxide to 100 mM, and further diluted 5-fold (100 μM) of the final concentration, like the test substance.
Calculation of Antagonist Activity
Under the test substance-free conditions, the maximum variation range of the fluorescence intensity before and after allylisothiocyanate stimulation was defined to be 100% activity rate, and the variation range before and after buffer stimulation was defined as 0% activity rate. The activity rate on addition of the test substance was determined, and the numerical value obtained by subtracting the activity rate from 100 was defined to be an inhibitory rate. IC50, which is the concentration of the test substance necessary for reaching the 50% inhibitory rate, was calculated from the sigmoid approximate curve by a spreadsheet software Excel-Fit.
A general note: Calcium assays in cells follow changes in intracellular calcium, usually with a dye or a luminescent sensor.

Chain of human TRPA1 (O75762 whole entry): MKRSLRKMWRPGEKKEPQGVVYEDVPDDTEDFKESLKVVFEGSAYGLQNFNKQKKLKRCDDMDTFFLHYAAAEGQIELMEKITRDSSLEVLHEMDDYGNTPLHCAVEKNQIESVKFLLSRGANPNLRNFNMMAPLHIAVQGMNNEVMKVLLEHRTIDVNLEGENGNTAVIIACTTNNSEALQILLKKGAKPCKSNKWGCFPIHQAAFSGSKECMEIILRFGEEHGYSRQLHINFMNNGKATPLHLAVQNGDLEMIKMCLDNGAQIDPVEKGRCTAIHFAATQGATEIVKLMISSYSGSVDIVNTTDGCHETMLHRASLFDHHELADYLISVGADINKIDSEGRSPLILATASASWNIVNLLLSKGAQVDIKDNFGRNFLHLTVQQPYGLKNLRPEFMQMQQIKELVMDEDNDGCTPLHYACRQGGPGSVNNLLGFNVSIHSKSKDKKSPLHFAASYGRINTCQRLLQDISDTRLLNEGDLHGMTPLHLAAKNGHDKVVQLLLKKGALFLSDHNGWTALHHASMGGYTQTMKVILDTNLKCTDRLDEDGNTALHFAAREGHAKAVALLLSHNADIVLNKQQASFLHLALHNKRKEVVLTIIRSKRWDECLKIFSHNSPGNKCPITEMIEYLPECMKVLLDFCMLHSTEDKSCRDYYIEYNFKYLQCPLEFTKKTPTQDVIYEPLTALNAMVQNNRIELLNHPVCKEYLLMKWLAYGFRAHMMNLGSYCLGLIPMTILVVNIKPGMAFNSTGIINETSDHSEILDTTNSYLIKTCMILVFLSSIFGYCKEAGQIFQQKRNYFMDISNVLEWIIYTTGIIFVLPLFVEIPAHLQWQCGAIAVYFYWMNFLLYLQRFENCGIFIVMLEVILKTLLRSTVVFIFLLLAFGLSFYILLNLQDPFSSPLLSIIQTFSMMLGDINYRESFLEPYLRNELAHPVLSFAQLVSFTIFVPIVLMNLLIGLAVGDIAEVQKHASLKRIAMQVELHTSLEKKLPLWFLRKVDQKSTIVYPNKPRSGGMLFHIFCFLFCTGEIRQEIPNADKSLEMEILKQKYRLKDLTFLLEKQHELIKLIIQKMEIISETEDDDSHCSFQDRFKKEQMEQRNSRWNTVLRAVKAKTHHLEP

For orientation: IC50 means the concentration that gives 50% inhibition. `O=C(NCc1cc(-c2ccc(C(F)(F)F)cn2)ccn1)[C@@H]1c2ccccc2CN1S(=O)(=O)c1cc2cc(F)ccc2o1` (racemic) [Example 264, (rac)-2-(5-fluorobenzofuran-2-yl)sulfonyl-N-[[4-[5-(trifluoromethyl)-2-pyridyl]-2-pyridyl]methyl]isoindoline-1-carboxamide]: the IC50 amounted to 12 nM.
For `N#Cc1ccc(COc2cccc(CNC(=O)[C@@H]3CCCN3S(=O)(=O)c3cc4ccccc4o3)c2)cc1` [Example 1, (2S)-1-(benzofuran-2-ylsulfonyl)-N-[[3-[(4-cyanophenyl)methoxy]phenyl]methyl]pyrrolidine-2-carboxamide], the IC50 came out at 3 nM.
To `N#Cc1cccc(COc2cccc(CNC(=O)[C@@H]3CCCN3S(=O)(=O)c3cc4ccccc4o3)c2)c1` [Example 2, (2S)-1-(benzofuran-2-ylsulfonyl)-N-[[3-[(3-cyanophenyl)methoxy]phenyl]methyl]pyrrolidine-2-carboxamide] belongs 7.9 nM.
`O=C(NCc1cccc(OCc2cccnc2)c1)[C@@H]1CCCN1S(=O)(=O)c1cc2ccccc2o1` [Example 3, (2S)-1-(benzofuran-2-ylsulfonyl)-N-[[3-(3-pyridylmethoxy)phenyl]methyl]pyrrolidine-2-carboxamide]: the IC50 worked out at 72 nM.
The result for `O=C(NCc1cccc(OCc2ccco2)c1)[C@@H]1CCCN1S(=O)(=O)c1cc2ccccc2o1` [Example 4, (2S)-1-(benzofuran-2-ylsulfonyl)-N-[[3-(2-furylmethoxy)phenyl]methyl]pyrrolidine-2-carboxamide] reads 23 nM.
On to `O=C(NCc1cccc(OCc2cccs2)c1)[C@@H]1CCCN1S(=O)(=O)c1cc2ccccc2o1` [Example 5, (2S)-1-(benzofuran-2-ylsulfonyl)-N-[[3-(2-thienylmethoxy)phenyl]methyl]pyrrolidine-2-carboxamide], for which the IC50 is 12 nM.
To `O=C(NCc1cccc(OCc2ccsc2)c1)[C@@H]1CCCN1S(=O)(=O)c1cc2ccccc2o1` [Example 6, (2S)-1-(benzofuran-2-ylsulfonyl)-N-[[3-(3-thienylmethoxy)phenyl]methyl]pyrrolidine-2-carboxamide] belongs 7.5 nM.
To `O=C(NCc1cccc(OCc2ccnc(C(F)(F)F)c2)c1)[C@@H]1CCCN1S(=O)(=O)c1cc2ccccc2o1` [Example 7] belongs 5.4 nM; to `O=C(NCc1cccc(OCc2ccc(C(F)(F)F)nc2)c1)[C@@H]1CCCN1S(=O)(=O)c1cc2ccccc2o1` [Example 8, (2S)-1-(benzofuran-2-ylsulfonyl)-N-[[3-[[6-(trifluoromethyl)-3-pyridyl]methoxy]phenyl]-methyl]pyrrolidine-2-carboxamide], 6.2 nM; to `O=C(NCc1cccc(OCc2cncc(C(F)(F)F)c2)c1)[C@@H]1CCCN1S(=O)(=O)c1cc2ccccc2o1` [Example 9, (2S)-1-(benzofuran-2-ylsulfonyl)-N-[[3-[[5-(trifluoromethyl)-3-pyridyl]methoxy]phenyl]-methyl]pyrrolidine-2-carboxamide], 7.6 nM.
To `O=C(NCc1cccc(OCc2cncc(Cl)c2)c1)[C@@H]1CCCN1S(=O)(=O)c1cc2ccccc2o1` [Example 10, (2S)-1-(benzofuran-2-ylsulfonyl)-N-[[3-[(5-chloro-3-pyridyl)methoxy]-phenyl]methyl]-pyrrolidine-2-carboxamide] belongs 10 nM; to `N#Cc1ccc(COc2cccc(CNC(=O)[C@@H]3CCCN3S(=O)(=O)c3cc4cc(F)ccc4o3)c2)cc1` [Example 11, (2S)-N-[[3-[(4-cyanophenyl)methoxy]phenyl]methyl]-1-(5-fluorobenzofuran-2-yl)sulfonyl-pyrrolidine-2-carboxamide], 1 nM; to `CN(C)c1cccc(COc2cccc(CNC(=O)[C@@H]3CCCN3S(=O)(=O)c3cc4cc(F)ccc4o3)c2)c1` [Example 12, (2S)-N-[[3-[[3-(dimethylamino)phenyl]methoxy]phenyl]-methyl]-1-(5-fluorobenzofuran-2-yl)sulfonyl-pyrrolidine-2-carboxamide], 8.1 nM.
Turning to `O=C(NCc1cccc(OCc2ccncc2)c1)[C@@H]1CCCN1S(=O)(=O)c1cc2cc(F)ccc2o1` [Example 13, (2S)-1-(5-fluorobenzofuran-2-yl)sulfonyl-N-[[3-(4-pyridylmethoxy)phenyl]methyl]pyrrolidine-2-carboxamide], the IC50 amounted to 19 nM.
Regarding `O=C(NCc1cccc(OCc2cccnc2)c1)[C@@H]1CCCN1S(=O)(=O)c1cc2cc(F)ccc2o1` [Example 14, (2S)-1-(5-fluorobenzofuran-2-yl)sulfonyl-N-[[3-(3-pyridylmethoxy)phenyl]-methyl]pyrrolidine-2-carboxamide], the IC50 was 20 nM.
As to `O=C(NCc1cccc(OCc2ccccn2)c1)[C@@H]1CCCN1S(=O)(=O)c1cc2cc(F)ccc2o1` [Example 15, (2S)-1-(5-fluorobenzofuran-2-yl)sulfonyl-N-[[3-(2-pyridylmethoxy)phenyl]-methyl]pyrrolidine-2-carboxamide], the IC50 was found to be 100 nM.
To `O=C(NCc1cccc(OCc2ccnc(C(F)(F)F)c2)c1)[C@@H]1CCCN1S(=O)(=O)c1cc2cc(F)ccc2o1` [Example 16, (2S)-1-(5-fluorobenzofuran-2-yl)sulfonyl-N-[[3-[[2-(trifluoromethyl)-4-pyridyl]methoxy]phenyl]-methyl]pyrrolidine-2-carboxamide] belongs 2.8 nM.
Take `CN(C)c1cc(COc2cccc(CNC(=O)[C@@H]3CCCN3S(=O)(=O)c3cc4cc(F)ccc4o3)c2)ccn1` [Example 17, (2S)-N-[[3-[[2-(dimethylamino)-4-pyridyl]methoxy]phenyl]-methyl]-1-(5-fluorobenzofuran-2-yl)sulfonyl-pyrrolidine-2-carboxamide]: the IC50 was found to be 15 nM.
`Cc1ccc(COc2cccc(CNC(=O)[C@@H]3CCCN3S(=O)(=O)c3cc4cc(F)ccc4o3)c2)cn1` [Example 19, (2S)-1-(5-fluorobenzofuran-2-yl)sulfonyl-N-[[3-[(6-methyl-3-pyridyl)methoxy]phenyl]-methyl]pyrrolidine-2-carboxamide]: the IC50 came to 14 nM.
The result for `O=C(NCc1cccc(OCc2ccc(C(F)(F)F)nc2)c1)[C@@H]1CCCN1S(=O)(=O)c1cc2cc(F)ccc2o1` [Example 20, (2S)-1-(5-fluorobenzofuran-2-yl)sulfonyl-N-[[3-[[6-(trifluoromethyl)-3-pyridyl]methoxy]phenyl]-methyl]pyrrolidine-2-carboxamide] reads 1.4 nM; that for `CN(C)c1ccc(COc2cccc(CNC(=O)[C@@H]3CCCN3S(=O)(=O)c3cc4cc(F)ccc4o3)c2)cn1` [Example 21, (2S)-N-[[3-[[6-(dimethylamino)-3-pyridyl]methoxy]phenyl]-methyl]-1-(5-fluorobenzofuran-2-yl)sulfonyl-pyrrolidine-2-carboxamide], 34 nM; that for `CN(C)c1cncc(COc2cccc(CNC(=O)[C@@H]3CCCN3S(=O)(=O)c3cc4cc(F)ccc4o3)c2)c1` [Example 23, (2S)-N-[[3-[[5-(dimethylamino)-3-pyridyl]methoxy]phenyl]-methyl]-1-(5-fluorobenzofuran-2-yl)sulfonyl-pyrrolidine-2-carboxamide], 110 nM.
